Reference: patent publication EP0099286B1, “Compound containing a tripeptide sequence of the threonyl-lysyl proline-type, or similar, useful as an anti-inflammatory, anti-allergic or antalgesic agent” (INSTITUT PASTEUR DE LILLE, priority 1982, dated 1987)
Residues, ends and D or L forms follow the SMILES beside them.

Tests used:
macrophages [1] = experiment: Inhibition of macrophage activity (general); assay type: cell-based; settings: for propriétés au terme des mêmes tests: same tests as for the tripeptide
Source text: (§1) Selon des tests effectués par les méthodes décrites dans l'article cité plus haut de "Immunology Letters", la L'thréonyl-L-lysyl-L-proline s'est révélée atoxique pour les cellules et inhibitrice non seulement de la libération, mais également de la synthèse de la β-glucuronidase lysosomiale. En présence du peptide, le taux intracellulaire de cette enzyme décroît également. La L-thréonyl-L-lysyl-L-proline inhibe également la stimulation des macrophages de patients allergiques par l'allergène correspondant, lorsqu'ils ont été préincubés en présence du peptide. Cette dépression est très significative (50 à 70%) dans des essais in vitro. La thréonyl-L-lysyl-L-proline présente un pouvoir inhibiteur d'environ 60% aux concentrations de 200 nanogrammes à 20 picogrammes, ce pouvoir inhibiteur étant même de 50% à 2 picogrammes. Cette inhibition par le peptide se manifeste aussi dans des essais d'activation de macrophages par des réactions (IgE)-(Anti-IgE), que ces macrophages aient été incubés auparavant in vitro en présence du peptide, ou obtenus à partir d'animaux auxquels le peptide avait antérieurement été administré par voie intraveineuse (chez le rat, à des doses de 10 µg, trois heures avant le prélèvement des cellules). La libération d'anion superoxyde par les macrophages de rats est également inhibée par le tripeptide en question. […] Le peptide administré au rat induit également une inhibition de l'anaphylaxie cutanée passive provoquée chez l'animal par les administrations successives d'un antigène et de l'antisérum correspondant.

macrophages de rats = experiment: Superoxide anion release by macrophages; assay type: cell-based
Source text: (§2) Selon des tests effectués par les méthodes décrites dans l'article cité plus haut de "Immunology Letters", la L'thréonyl-L-lysyl-L-proline s'est révélée atoxique pour les cellules et inhibitrice non seulement de la libération, mais également de la synthèse de la β-glucuronidase lysosomiale. En présence du peptide, le taux intracellulaire de cette enzyme décroît également. La L-thréonyl-L-lysyl-L-proline inhibe également la stimulation des macrophages de patients allergiques par l'allergène correspondant, lorsqu'ils ont été préincubés en présence du peptide. Cette dépression est très significative (50 à 70%) dans des essais in vitro. La thréonyl-L-lysyl-L-proline présente un pouvoir inhibiteur d'environ 60% aux concentrations de 200 nanogrammes à 20 picogrammes, ce pouvoir inhibiteur étant même de 50% à 2 picogrammes. Cette inhibition par le peptide se manifeste aussi dans des essais d'activation de macrophages par des réactions (IgE)-(Anti-IgE), que ces macrophages aient été incubés auparavant in vitro en présence du peptide, ou obtenus à partir d'animaux auxquels le peptide avait antérieurement été administré par voie intraveineuse (chez le rat, à des doses de 10 µg, trois heures avant le prélèvement des cellules). La libération d'anion superoxyde par les macrophages de rats est également inhibée par le tripeptide en question. […]

mastocytes = experiment: Mast cell degranulation in vitro; assay type: cell-based, rats; settings: pre-incubated with peptide; stimulants polymyxine or phytohémagglutinine
macrophages [2] = settings: macrophages challenged simultaneously by an antigen and the peptide; cited from earlier work
[3] = tested on: macrophages de patients allergiques; experiment: Stimulation of macrophages of allergic patients by the corresponding allergen, in vitro; assay type: cell-based
Source text: D'autre part, les macrophages alvéolaires de sujets allergiques stimulés par l'allergène correspondant sont également inhibés de manière significative (50 à 60%) s'ils ont été péalablement incubés avec des produits de l'hydrolyse des IgG par les protéases parasitaires.
Selon des tests effectués par les méthodes décrites dans l'article cité plus haut de "Immunology Letters", la L'thréonyl-L-lysyl-L-proline s'est révélée atoxique pour les cellules et inhibitrice non seulement de la libération, mais également de la synthèse de la β-glucuronidase lysosomiale. En présence du peptide, le taux intracellulaire de cette enzyme décroît également. La L-thréonyl-L-lysyl-L-proline inhibe également la stimulation des macrophages de patients allergiques par l'allergène correspondant, lorsqu'ils ont été préincubés en présence du peptide. Cette dépression est très significative (50 à 70%) dans des essais in vitro. La thréonyl-L-lysyl-L-proline présente un pouvoir inhibiteur d'environ 60% aux concentrations de 200 nanogrammes à 20 picogrammes, ce pouvoir inhibiteur étant même de 50% à 2 picogrammes. […]

[4] = tested on: β-glucuronidase lysosomiale; experiment: Release and synthesis of lysosomal β-glucuronidase by macrophages; assay type: cell-based
Source text: as §1

cellules = experiment: Toxicity for the cells; assay type: cell-based; settings: methods of the cited Immunology Letters article
Source text: as §2

macrophages [5] = experiment: Macrophage activation by (IgE)-(Anti-IgE) reactions, macrophages pre-incubated in vitro with the peptide; assay type: cell-based; settings: macrophages incubated beforehand in vitro with the peptide
Source text: as §2

[6] = tested on: anaphylaxie cutanée passive; experiment: Passive cutaneous anaphylaxis; assay type: in vivo; settings: rat; provoked by successive administration of antigen and corresponding antiserum
Source text: as §2

macrophages [7] = experiment: Macrophage activation by (IgE)-(Anti-IgE) reactions, macrophages from animals given the peptide intravenously; assay type: in vivo; settings: rat, intravenous, 10 µg, three hours before cell collection
Source text: as §2

In the case of N=C(N)NCCC[C@H](NC(=O)[C@@H]1CCCN1C(=O)[C@@H](N)CCCCN)C(=O)O [L-lysyl-L-prolyl-L-arginine, reference compound] (H-Lys-Pro-Arg-OH), the “activité à l'égard de l'activité des macrophages” value (macrophages [1]) is reported as “n'est pas active”.
With C[C@@H](O)[C@H](N)C(=O)N[C@@H](CCCCN)C(=O)N1CCC[C@H]1C(N)=O [dérivé amidé, amide de la thréonyl-lysylproline] (H-Thr-Lys-Pro-NH2) the “propriétés au terme des mêmes tests” value (macrophages [1]) was “essentiellement les mêmes propriétés”.
In the case of C[C@@H](O)[C@H](N)C(=O)N[C@@H](CCCCN)C(=O)N1CCC[C@H]1C(=O)O [L-thréonyl-L-lysyl-L-proline] (H-Thr-Lys-Pro-OH), the “libération d'anion superoxyde par les macrophages de rats” value (macrophages de rats) is given as “inhibée”, the dégranulation des mastocytes (mastocytes) is given as “inhibition sensible” and the “propriété d'activer les macrophages” value (macrophages [2]) is given as “abolition”. The pouvoir inhibiteur ([3]; 2 picogrammes) was 50%, the pouvoir inhibiteur ([3]; concentrations de 200 nanogrammes à 20 picogrammes) was ~60% and the “libération de la β-glucuronidase lysosomiale” value [4] was “inhibitrice”. For the same compound, the “synthèse de la β-glucuronidase lysosomiale” value [4] was “inhibitrice”, the “taux intracellulaire de cette enzyme” value ([4]; β-glucuronidase, in presence of the peptide) was “décroît” and the “toxicité pour les cellules” value (cellules) was “atoxique”. The “inhibition de l'activation de macrophages par des réactions (IgE)-(Anti-IgE)” value (macrophages [5]) was “inhibition”, the “inhibition de l'anaphylaxie cutanée passive” value [6] was “inhibition” and the “inhibition de l'activation de macrophages par des réactions (IgE)-(Anti-IgE)” value (macrophages [7]) was “inhibition”. The “activité à l'égard de l'activité des macrophages” value (macrophages [1]) was “activité inhibitrice semblable”.
In the case of CC(=O)N[C@H](C(=O)N[C@@H](CCCCN)C(=O)N1CCC[C@H]1C(=O)O)[C@@H](C)O [dérivé N-acétylé] (Ac-Thr-Lys-Pro-OH), the “propriétés au terme des mêmes tests” value (macrophages [1]) is reported as “essentiellement les mêmes propriétés”.
